{"source": "patent US5449752A", "about": "“Polypeptides with affinity to lipopolysaccharides and their uses” (Seikagaku Kogyo K.K., priority 1991, dated 1995)", "key": {"[1]": {"tested_on": "MT-4 cells", "assay": "Cytotoxicity on virus-noninfected MT-4 cells (MTT method)", "format": "cell-based", "details": "37° C., 5 days", "procedure": "(§1) HIV-infected MT-4 cells (2.5×10^4 cells/well, multiplicity of infection (MOI): 0.001) immediately after infection were added together with the test substance with various changes of the concentration to a 96-well microtitre plate. After incubation at 37° C. for 5 days in a CO2 incubator, the number of survivor cells was measured by the MTT method [Pauwels et al.; J. Virol. Methods, 20, 309-321 (1988)]. The antiviral activity is expressed as a concentration at which cell death due to HIV infection is 50% inhibited (EC50 : 50% effective concentration). On the other hand, in order to know the cytotoxicity of the test substance on the MT-4 cells, virus-noninfected cells are incubated, likewise as above, together with the test compound with various changes of the concentration. The cytotoxicity is expressed as 50% cytotoxic concentration […] due to the test substance. Further, the rough ratio of CC50 to EC50 (CC50 /EC50) is expressed as an effective ratio (SI=selectivity index)."}, "[2]": {"tested_on": "HIV", "assay": "Antiviral activity against HIV in HIV-infected MT-4 cells (MTT method)", "format": "cell-based, human immunodeficiency virus", "details": "for EC50 (concentration at which cell death due to HIV infection is 50% inhibited): HIV-infected MT-4 cells, MOI 0.001, 37° C., 5 days, MTT method; for SI (CC50 /EC50): rough ratio of CC50 to EC50, MT-4 cells; for selectivity in killing HIV infected cells (in words): MT-4 cells, Table III; for selectivity index higher than for any of the known high endotoxin affinity compounds: compared with Tachyplesins and Polyphemusins of Table III", "procedure": "The antiviral activity-against HIV of the polypeptide (1) synthesized in Example 1 as well as polypeptides (2), (3), (4), (7), (12), (13), (14), (20), (21) and (26) was tested and evaluated according to the following method.\nas §1"}}, "note": "Positions of bridges follow the written chain, without caps; N, C: chain ends. Residues, ends and D or L forms follow the SMILES beside them. No end group written: not given here."}
{"compound": "ArgArgTyrCysTyrArgLysCysTyrLysGlyTyrCysTrpArgLysCysArgNH2 (RRYCYRKCYKGYCWRKCR-NH2; cysteine pairing not given here) [polypeptide (7)]", "values": [{"measurement": "CC50 (50% cytotoxic concentration)", "setting": "[1]", "result": 100, "unit": "µg/mL"}, {"measurement": "EC50 (concentration at which cell death due to HIV infection is 50% inhibited)", "setting": "[2]", "result": 0.36, "unit": "µg/mL"}, {"measurement": "SI (CC50 /EC50)", "setting": "[2]", "result": 278}]}
{"compound": "N=C(N)NCCC[C@H](NC(=O)[C@@H]1CSSC[C@H](NC(=O)[C@H](Cc2c[nH]c3ccccc23)NC(=O)[C@H](CCCNC(=N)N)NC(=O)[C@@H](N)CCCNC(=N)N)C(=O)N[C@@H](Cc2ccc(O)cc2)C(=O)N[C@@H](CCCNC(=N)N)C(=O)N[C@@H](CCCCN)C(=O)N[C@H]2CSSC[C@H](NC(=O)[C@H](Cc3ccccc3)NC(=O)CNC(=O)[C@H](CCCCN)NC(=O)[C@H](Cc3ccccc3)NC2=O)C(=O)N[C@@H](Cc2ccc(O)cc2)C(=O)N[C@@H](CCCNC(=N)N)C(=O)N[C@@H](CCCCN)C(=O)N1)C(N)=O", "note": "[polypeptide (20), ArgArgTrpCysTyrArgLysCysPheLysGlyPheCysTyrArgLysCysArgNH2] (H-RRWCYRKCFKGFCYRKCR-NH2; disulfide 4-17, 8-13; N-terminus assumed)", "values": [{"measurement": "CC50 (50% cytotoxic concentration)", "setting": "[1]", "result": 54, "unit": "µg/mL"}, {"measurement": "EC50 (concentration at which cell death due to HIV infection is 50% inhibited)", "setting": "[2]", "result": 0.01, "unit": "µg/mL"}]}
{"compound": "N=C(N)NCCC[C@H](NC(=O)[C@@H]1CSSC[C@H](NC(=O)[C@H](Cc2c[nH]c3ccccc23)NC(=O)[C@@H](N)CCCNC(=N)N)C(=O)N[C@@H](Cc2ccc(O)cc2)C(=O)N[C@@H](CCCNC(=N)N)C(=O)N[C@@H](CCCCN)C(=O)N[C@H]2CSSC[C@H](NC(=O)[C@H](Cc3ccccc3)NC(=O)CNC(=O)[C@H](CCCCN)NC(=O)[C@H](Cc3ccc(O)cc3)NC2=O)C(=O)N[C@@H](Cc2ccc(O)cc2)C(=O)N[C@@H](CCCNC(=N)N)C(=O)N[C@@H](CCCCN)C(=O)N1)C(N)=O", "note": "[polypeptide (3), ArgTrpCysTyrArgLysCysTyrLysGlyPheCysTyrArgLysCysArgNH2] (H-RWCYRKCYKGFCYRKCR-NH2; disulfide 3-16, 7-12; N-terminus assumed)", "values": [{"measurement": "CC50 (50% cytotoxic concentration)", "setting": "[1]", "result": 50, "unit": "µg/mL"}, {"measurement": "EC50 (concentration at which cell death due to HIV infection is 50% inhibited)", "setting": "[2]", "result": 0.07, "unit": "µg/mL"}, {"measurement": "selectivity in killing HIV infected cells (in words)", "setting": "[2]", "result": "particularly selective"}, {"measurement": "selectivity index higher than for any of the known high endotoxin affinity compounds", "setting": "[2]", "result": "at least 7 fold"}]}
{"compound": "CC[C@H](C)[C@@H]1NC(=O)CNC(=O)[C@H](CCCNC(=N)N)NC(=O)[C@H](Cc2ccc(O)cc2)NC(=O)[C@@H]2CSSC[C@H](NC1=O)C(=O)N[C@@H](Cc1ccc(O)cc1)C(=O)N[C@@H](CCCNC(=N)N)C(=O)N[C@@H](CCCCN)C(=O)N[C@H](C(=O)N[C@@H](CCCNC(=N)N)C(N)=O)CSSC[C@H](NC(=O)[C@H](Cc1c[nH]c3ccccc13)NC(=O)[C@@H](N)CCCNC(=N)N)C(=O)N[C@@H](Cc1ccccc1)C(=O)N[C@@H](CCCNC(=N)N)C(=O)N[C@@H](C(C)C)C(=O)N2", "note": "[Tachyplesin II, ArgTrpCysPheArgValCysTyrArgGlyIleCysTyrArgLysCysArg NH2, reference compound] (H-RWCFRVCYRGICYRKCR-NH2; disulfide 3-16, 7-12)", "values": [{"measurement": "CC50 (50% cytotoxic concentration)", "setting": "[1]", "result": 36, "unit": "µg/mL"}, {"measurement": "SI (CC50 /EC50)", "setting": "[2]", "result": 6}]}
{"compound": "N=C(N)NCCC[C@H](NC(=O)[C@H](CCCNC(=N)N)NC(=O)[C@@H]1CSSC[C@H](NC(=O)[C@H](Cc2c[nH]c3ccccc23)NC(=O)[C@H](CCCNC(=N)N)NC(=O)[C@@H](N)CCCNC(=N)N)C(=O)N[C@@H](Cc2ccc(O)cc2)C(=O)N[C@@H](CCCNC(=N)N)C(=O)N[C@@H](CCCCN)C(=O)N[C@H]2CSSC[C@H](NC(=O)[C@H](Cc3ccc(O)cc3)NC(=O)CNC(=O)[C@H](CCCCN)NC(=O)[C@H](Cc3ccc(O)cc3)NC2=O)C(=O)N[C@@H](Cc2ccc(O)cc2)C(=O)N[C@@H](CCCNC(=N)N)C(=O)N[C@@H](CCCCN)C(=O)N1)C(N)=O", "note": "[polypeptide (2), ArgArgTrpCysTyrArgLysCysTyrLysGlyTyrCysTyrArgLysCysArgArgNH2] (H-RRWCYRKCYKGYCYRKCRR-NH2; disulfide 4-17, 8-13; N-terminus assumed)", "values": [{"measurement": "CC50 (50% cytotoxic concentration)", "setting": "[1]", "result": 200, "unit": "µg/mL"}, {"measurement": "EC50 (concentration at which cell death due to HIV infection is 50% inhibited)", "setting": "[2]", "result": 1.26, "unit": "µg/mL"}]}
{"compound": "N=C(N)NCCC[C@H](NC(=O)[C@@H]1CSSC[C@H](NC(=O)[C@H](Cc2c[nH]c3ccccc23)NC(=O)[C@H](CCCNC(=N)N)NC(=O)[C@@H](N)CCCNC(=N)N)C(=O)N[C@@H](Cc2ccc(O)cc2)C(=O)N[C@@H](CCCCN)C(=O)N[C@@H](CCCNC(=N)N)C(=O)N[C@H]2CSSC[C@H](NC(=O)[C@H](Cc3ccc(O)cc3)NC(=O)CNC(=O)[C@H](CCCCN)NC(=O)[C@H](Cc3ccc(O)cc3)NC2=O)C(=O)N[C@@H](Cc2ccc(O)cc2)C(=O)N[C@@H](CCCCN)C(=O)N[C@@H](CCCNC(=N)N)C(=O)N1)C(N)=O", "note": "[polypeptide (12), ArgArgTrpCysTyrLysArgCysTyrLysGlyTyrCysTyrLysArgCysArgNH2] (H-RRWCYKRCYKGYCYKRCR-NH2; disulfide 4-17, 8-13; N-terminus assumed)", "values": [{"measurement": "CC50 (50% cytotoxic concentration)", "setting": "[1]", "result": 245, "unit": "µg/mL"}, {"measurement": "EC50 (concentration at which cell death due to HIV infection is 50% inhibited)", "setting": "[2]", "result": 0.49, "unit": "µg/mL"}, {"measurement": "selectivity in killing HIV infected cells (in words)", "setting": "[2]", "result": "particularly selective"}, {"measurement": "selectivity index higher than for any of the known high endotoxin affinity compounds", "setting": "[2]", "result": "at least 7 fold"}]}
{"compound": "N=C(N)NCCC[C@H](NC(=O)[C@@H]1CSSC[C@H](NC(=O)[C@H](Cc2c[nH]c3ccccc23)NC(=O)[C@H](CCCNC(=N)N)NC(=O)[C@@H](N)CCCNC(=N)N)C(=O)N[C@@H](Cc2ccc(O)cc2)C(=O)N[C@@H](CCCNC(=N)N)C(=O)N[C@@H](CCCCN)C(=O)N[C@H]2CSSC[C@H](NC(=O)[C@H](Cc3ccc(O)cc3)NC(=O)CNC(=O)[C@H](CCCNC(=N)N)NC(=O)[C@H](Cc3ccc(O)cc3)NC2=O)C(=O)N[C@@H](Cc2ccc(O)cc2)C(=O)N[C@@H](CCCNC(=N)N)C(=O)N[C@@H](CCCCN)C(=O)N1)C(N)=O", "note": "[polypeptide (14), ArgArgTrpCysTyrArgLysCysTyrArgGlyTyrCysTyrArgLysCysArgNH2] (H-RRWCYRKCYRGYCYRKCR-NH2; disulfide 4-17, 8-13; N-terminus assumed)", "values": [{"measurement": "CC50 (50% cytotoxic concentration)", "setting": "[1]", "result": 52, "unit": "µg/mL"}, {"measurement": "EC50 (concentration at which cell death due to HIV infection is 50% inhibited)", "setting": "[2]", "result": 0.018, "unit": "µg/mL"}, {"measurement": "selectivity in killing HIV infected cells (in words)", "setting": "[2]", "result": "particularly selective"}, {"measurement": "selectivity index higher than for any of the known high endotoxin affinity compounds", "setting": "[2]", "result": "at least 7 fold"}]}
{"compound": "Cc1cn([C@H]2C[C@H](N=[N+]=[N-])[C@@H](CO)O2)c(=O)[nH]c1=O", "note": "[AZT, reference compound]", "values": [{"measurement": "CC50 (50% cytotoxic concentration)", "setting": "[1]", "result": 6.8, "unit": "µg/mL"}, {"measurement": "EC50 (concentration at which cell death due to HIV infection is 50% inhibited)", "setting": "[2]", "result": 4.8, "unit": "µg/mL"}]}
{"compound": "N=C(N)NCCC[C@H](NC(=O)[C@@H]1CSSC[C@H](NC(=O)[C@H](Cc2c[nH]c3ccccc23)NC(=O)[C@H](CCCNC(=N)N)NC(=O)[C@@H](N)CCCNC(=N)N)C(=O)N[C@@H](Cc2ccc(O)cc2)C(=O)N[C@@H](CCCNC(=N)N)C(=O)N[C@@H](CCCCN)C(=O)N[C@H]2CSSC[C@H](NC(=O)[C@H](Cc3ccccc3)NC(=O)CNC(=O)[C@H](CCCCN)NC(=O)[C@H](Cc3ccc(O)cc3)NC2=O)C(=O)N[C@@H](Cc2ccc(O)cc2)C(=O)N[C@@H](CCCNC(=N)N)C(=O)N[C@@H](CCCCN)C(=O)N1)C(N)=O", "note": "[polypeptide (13), ArgArgTrpCysTyrArgLysCysTyrLysGlyPheCysTyrArgLysCysArgNH2] (H-RRWCYRKCYKGFCYRKCR-NH2; disulfide 4-17, 8-13; N-terminus assumed)", "values": [{"measurement": "CC50 (50% cytotoxic concentration)", "setting": "[1]", "result": 52, "unit": "µg/mL"}, {"measurement": "EC50 (concentration at which cell death due to HIV infection is 50% inhibited)", "setting": "[2]", "result": 0.009, "unit": "µg/mL"}, {"measurement": "selectivity in killing HIV infected cells (in words)", "setting": "[2]", "result": "particularly selective"}, {"measurement": "selectivity index higher than for any of the known high endotoxin affinity compounds", "setting": "[2]", "result": "at least 7 fold"}]}
{"compound": "N=C(N)NCCC[C@H](NC(=O)[C@@H]1CSSC[C@H](NC(=O)[C@H](Cc2c[nH]c3ccccc23)NC(=O)[C@@H](N)CCCNC(=N)N)C(=O)N[C@@H](Cc2ccc(O)cc2)C(=O)N[C@@H](CCCNC(=N)N)C(=O)N[C@@H](CCCCN)C(=O)N[C@H]2CSSC[C@H](NC(=O)[C@H](Cc3ccc(O)cc3)NC(=O)CNC(=O)[C@H](CCCCN)NC(=O)[C@H](Cc3ccc(O)cc3)NC2=O)C(=O)N[C@@H](Cc2ccc(O)cc2)C(=O)N[C@@H](CCCNC(=N)N)C(=O)N[C@@H](CCCCN)C(=O)N1)C(N)=O", "note": "[polypeptide (26), ArgTrpCysTyrArgLysCysTyrLysGlyTyrCysTyrArgLysCysArgNH2] (H-RWCYRKCYKGYCYRKCR-NH2; disulfide 3-16, 7-12; N-terminus assumed)", "values": [{"measurement": "CC50 (50% cytotoxic concentration)", "setting": "[1]", "result": 165, "unit": "µg/mL"}, {"measurement": "EC50 (concentration at which cell death due to HIV infection is 50% inhibited)", "setting": "[2]", "result": 0.18, "unit": "µg/mL"}, {"measurement": "selectivity in killing HIV infected cells (in words)", "setting": "[2]", "result": "particularly selective"}, {"measurement": "selectivity index higher than for any of the known high endotoxin affinity compounds", "setting": "[2]", "result": "at least 7 fold"}]}
